Data from patent US20240366728A1, “Treatment of Diabetes Mellitus” (Carmot Therapeutics Inc., priority 2023, published 2024).
Marks after values point to notes of the source that are not given here.

What was measured:
[1] = system: participants with obesity and participants with T2DM; assay: CT-868-003 crossover study: safety; type: in vivo, human; conditions: for Infections and infestations / Urinary tract infection: Table 24
From the text: Safety assessments of this study included treatment-emergent adverse events (TEAEs), serious adverse events (SAEs), adverse events of special interest (AESI), vital signs, 12-lead electrocardiogram (ECG), clinical lab evaluations, and physical exam.
Safety assessments which occurred throughout the entire study, included monitoring of incidence and severity of AEs, treatment-emergent AEs (TEAEs) and AEs of special interest (AESIs) (e.g., GI events, hypoglycemia), clinical laboratory abnormalities (ECGs, chemistry, hematology, and urinalysis), and changes in vital sign measurements (BP, heart rate, respiratory rate, and aural temperature).
AE terms recorded by the Investigator were coded to system organ class (SOC) and preferred term (PT) using the Medical Dictionary for Regulatory Activities (MedDRA) version 24.0. Severity was collected using the Common Terminology Criteria for AEs (CTCAE) version 5.0 Toxicity Grade. Events with missing severity were summarized as Grade 3. TEAEs summarized by severity counted each participant once for the maximum severity within each SOC and PT within each in-house treatment period and overall. TEAEs marked with a relationship to study treatment as definitely, probable, possible, or missing were considered as related TEAEs. Events with missing relationship to study treatment were summarized as related. The number and percentage of participants with TEAEs were summarized by MedDRA-coded SOCs and PTs.

clinical = assay: clinical; design: species or system human; conditions: in vivo
Method: Blood samples, pre- and post-dose, were collected during the in-house treatment periods for the assessment of PD and PK endpoints. […] In addition, fasting plasma glucose (FPG), insulin, C-peptide, GCG and HOMA-IR after ≥10 hours overnight fast and VAS assessments were done on Days 1, 2 and 3.
In participants with T2DM, blood samples were collected on Days 2, 3 and 4 for assessing PK profiles and for PD profiles, on Days 2 and 3. Fasting plasma glucose (FPG), insulin, C-peptide, GCG and HOMA-IR after ≥10 hours overnight fast on Days 1, 2, 3 and 4. A mixed meal tolerance test (MMTT) and prospective meal consumption (ad libitum meal) was administered on Day 4. Appetite and food intake were assessed using a VAS questionnaire (appetite, hunger and satiety) on Days 1, 2, 3 and 4.

human GLP-1R = human GLP-1R (Homo sapiens, UniProt P43220); assay: cAMP accumulation, SNAP-human GLP-1R CHO-K1 cells
human GLP-1R, sequence (P43220 24-463): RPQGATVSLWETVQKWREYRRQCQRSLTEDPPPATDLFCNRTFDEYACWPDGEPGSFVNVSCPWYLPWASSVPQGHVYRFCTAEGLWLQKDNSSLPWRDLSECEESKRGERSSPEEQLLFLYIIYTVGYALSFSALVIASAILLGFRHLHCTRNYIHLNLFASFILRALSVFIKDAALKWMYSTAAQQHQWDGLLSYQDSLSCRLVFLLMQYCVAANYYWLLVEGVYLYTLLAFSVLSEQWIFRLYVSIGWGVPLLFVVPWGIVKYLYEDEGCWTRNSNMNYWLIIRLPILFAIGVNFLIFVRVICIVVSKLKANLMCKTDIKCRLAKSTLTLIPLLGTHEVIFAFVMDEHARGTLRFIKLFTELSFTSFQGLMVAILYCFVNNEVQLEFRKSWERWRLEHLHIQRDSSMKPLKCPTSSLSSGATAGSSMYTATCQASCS

in vivo = conditions: male, CD-1, mouse, sc
Method: Blood was kept on ice until centrifuged at 4600 rpm for five minutes at 4° C. Plasma was stored at −80° C. until analysis. Compounds were extracted from plasma and quantified against a standard curve using an AB Sciex 7500+LC-MS/MS system (FIG. 5).

[2] = Part 1 (participants with obesity)
[3] = Part 2 (participants with T2DM)

With `CCCCCCCCCCCCCCCC(=O)N[C@@H](CCC(=O)NCCCC[C@H](NC(=O)[C@H](CO)NC(=O)[C@@H]1CCCN1C(=O)[C@@H]1CCCN1C(=O)[C@@H]1CCCN1C(=O)[C@H](C)NC(=O)CNC(=O)[C@H](CO)NC(=O)[C@H](CO)NC(=O)[C@@H]1CCCN1C(=O)CNC(=O)CNC(=O)[C@H](C)NC(=O)[C@H](CC(C)C)NC(=O)[C@H](CC(C)C)NC(=O)[C@H](Cc1c[nH]c2ccccc12)NC(=O)[C@H](CC(N)=O)NC(=O)[C@@H](NC(=O)[C@H](Cc1ccccc1)NC(=O)[C@H](CCC(=O)O)NC(=O)C(C)(C)NC(=O)[C@H](C)NC(=O)[C@H](C)NC(=O)[C@H](CCC(N)=O)NC(=O)[C@H](CCCCN)NC(=O)[C@H](CC(=O)O)NC(=O)[C@H](CC(C)C)NC(=O)[C@H](Cc1ccc(O)cc1)NC(=O)[C@@H](NC(=O)[C@H](CO)NC(=O)[C@H](Cc1ccc(O)cc1)NC(=O)[C@H](CC(=O)O)NC(=O)[C@H](CO)NC(=O)[C@@H](NC(=O)[C@H](Cc1ccccc1)NC(=O)[C@@H](NC(=O)CNC(=O)[C@H](CCC(=O)O)NC(=O)CSCC(=O)NCCN1CCCCC1=O)[C@@H](C)O)[C@@H](C)O)[C@@H](C)CC)C(C)C)C(N)=O)C(=O)O` [CT-868] the Infections and infestations [1, 2] was 0 n (%), the Urinary tract infection [1, 2] was 0 n (%) and the Infections and infestations [1, 3] was 0 n (%). For the same compound, the Urinary tract infection [1, 3] was 0 n (%), the “AEs of Special Interest (AESI) Total” value ([1]; in vivo) was 10 (50.0) n (%) and the “Any AESIs, Grade 2” value ([1]; in vivo) was 1 (8.3%) n (%). The Arthralgia ([1]; in vivo) was 0 n (%), the “At Least 1 Study Drug Related TEAE” value ([1]; in vivo) was 9 (45.0) n (%) and the “At Least 1 TEAE” value ([1]; in vivo) was 14 (70.0) n (%). For the same compound, the Back pain ([1]; in vivo) was 0 n (%), the Coagulation test abnormal ([1]; in vivo) was 0 n (%) and the Dermatitis ([1]; in vivo) was 0 n (%). The “GI side effects (in words)” value ([1]; in vivo) was “mostly mild and transient”, the Hypoglycemia ([1]; in vivo) was 7 (35.0) n (%) and the “Injection Site Reaction” value ([1]; in vivo) was 1 (5.0) n (%). The Investigations ([1]; in vivo) was 0 n (%), the “Musculoskeletal and connective tissue disorders” value ([1]; in vivo) was 0 n (%) and the SAEs ([1]; in vivo) was 0 n (%). The “Treatment Discontinuation” value ([1]; in vivo) was 1 (5.0)* n (%), the “participants with Grade 1 hypoglycemia events” value ([1]; in vivo) was 7 participants and the “tolerability (in words)” value ([1]; in vivo) was “well tolerated”. The “vital signs, ECG parameters, laboratory values (in words)” value ([1]; in vivo) was “no clinically significant CT-868-related changes”, the “incremental AUC” value (clinical; human) was 128,267 ng/ml*min and the “terminal half-life (t1/2)” value (clinical; human) was 1,190 minutes. The AUC (clinical; human, AUC) was 3490 ng·h/mL, the AUC (clinical; human, AUC (0-tau)) was 3860 ng·h/mL and the Cmax (clinical; human, Cmax) was 247 ng/mL. It also gave a Cmax (clinical; human, Maximum Concentration of CT-868 (Cmax)) of 274 ng/mL, a Tmax (clinical; human, Time of Maximum Concentration of CT-868 (Tmax)) of 10.9 h and a Tmax (clinical; human, Tmax) of 12.2 h. It also gave an AUC (clinical; human, incremental AUC) of 2260 ng·h/mL, a half-life (clinical; human, terminal half-life) of ~20 h and a half-life (clinical; human, terminal half-life (t1/2)) of 19.8 h. For the same compound, the “time at which maximum plasma concentrations were attained post-dose” value (clinical) was 11 to 12 h, the Emax (human GLP-1R; CHO-K1, read-out: hGLP-1R cAMP (-alb) % Emax) was 92% and the EC50 (human GLP-1R; potency activating cAMP at human GLP-1R, value of b126) was ~0.17 nM. For the same compound, the AUC(0-inf) (in vivo) was 7.92 µM·h and the half-life (in vivo) was 7 h.
